# Test results from patent US8519183B2, “Uses for amino acid anticonvulsants” (Research Corporation Technologies, Inc., priority 2000, dated 2013).
# “And” between values parts separate entries of the source, which are not always exact repeats. Identical values can stand only once.
# What was measured:
# [1] = biological target: glycine strychnine-insensitive site of the NMDA receptor complex (Homo sapiens, UniProt Q05586); test: affinity at the glycine strychnine-insensitive site of the NMDA receptor complex; type: binding
# male ICR mice = test: radiant heat induced tail flick response; type: in vivo
# Protocol: Groups of 4 male ICR mice weighing 22±2 gms were employed. A dose (30 mg/kg) of test compound dissolved in a vehicle of saline was administered intraperitoneally. The control group received vehicle alone. At pretreatment (0 minute) a focused beam of radiant heat was applied to the middle dorsal surface of the tail to elicit a tail flick response within 6-7.5 seconds in pre-treated animals. A maximum cut-off time of 15 seconds was set. The time required to elicit a pain response was recorded for each animal at 0 and 30 minutes following administration of test compound. Prolongation by 50 percent or more (≧50%) of the time required to elicit a tail flick indicated analgesic activity.
# [2] = tested on: ICR derived male or female mice; test: formalin induced hind paw licking; type: in vivo; conditions: for Licking Time, Ave.: 5 mice
# Protocol: The degree of pain is determined by measuring the decrease in the amount of time the animal spends licking the formalin-injected paw after administration of the drug.
# Reduction of the induced hind paw licking time recorded during the following 20 to 30 minutes period by 50 percent or more (50%) indicated analgesic activity.
# [3] = biological target: T1, serotonin 5-HT1A receptor (Rattus norvegicus, UniProt P19327); test: 5-MeODMT-induced head twitch; type: in vivo, rats
# T1 construct: from tissue; host or cells: living Long Evans derived rat (in vivo)
# T1 sequence (P19327 1-422): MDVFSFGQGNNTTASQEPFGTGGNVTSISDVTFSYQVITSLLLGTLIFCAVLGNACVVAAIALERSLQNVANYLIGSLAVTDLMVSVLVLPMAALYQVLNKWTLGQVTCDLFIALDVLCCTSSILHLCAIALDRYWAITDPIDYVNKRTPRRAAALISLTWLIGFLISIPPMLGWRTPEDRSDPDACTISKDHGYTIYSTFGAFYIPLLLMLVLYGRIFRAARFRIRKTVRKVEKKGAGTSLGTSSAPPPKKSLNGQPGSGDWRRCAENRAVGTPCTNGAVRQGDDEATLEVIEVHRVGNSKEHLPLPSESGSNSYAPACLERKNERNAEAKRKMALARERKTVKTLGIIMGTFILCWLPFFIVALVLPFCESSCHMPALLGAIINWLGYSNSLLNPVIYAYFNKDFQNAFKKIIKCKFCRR
# Protocol: Test substance was administered PO (30 mg/kg) to a group of 3 Long Evans derived male or female rats weighing 150±20 gms one hour before injection of 5-MeODMT (5-methoxy-N,N-dimethyltryptamine, 3 mg/kg IP).
# NMDA receptor = NMDA receptor (Mus musculus, UniProt P35438); test: NMDA receptor agonism/antagonism after ICVT administration
# Protocol: Test substance was administered ICVT (intracerebroventricular, 30 μg in 5 μl/mouse). The appearance of convulsions/mortality in 2 or more (≧2) of 3 ICR derived male or female mice weighing 22±2 gms within the 5 minutes thereafter would indicate NMDA receptor agonism. At a dose where no significant agonist activity was seen within 5 minutes, ability to inhibit NMDA (60 mg/kg IV)—induced Tonic convulsions/mortality in 2 or more (≧2) of 3 ICR derived male or female mice weighing 22±gms within the following 5 minutes indicated NMDA receptor antagonist activity.
# [4] = tested on: ICR derived male or female mice; test: Analgesia, Acetic Acid Writhing; type: in vivo; conditions: for No. of Writhes, X ± SEM: group of 3 mice; for No. of Writhes (individual animal): one hour before acetic acid, 5 to 10 minute period; for % Inh.: relative to vehicle control
# Description: In the first animal study in Example 1, the degree of pain experienced by the mice after injection by acetic acid is seen by the number of writhes. If the mice experience no pain, there is no writhing.
# The protocol is based on the acetic acid writhing test in mice, developed by R. Koster, et al. Fed. Proc, 18, 412 […], and referred to a Koster test and Hunskarai, S., et al., J. Neuroscience Meth. 14: 69-76, 1985.
# Reduction in the number of writhes by 50 percent or more (≧50%) per group of animals observed during the 5 to 10 minute period after acetic acid administration, relative to a vehicle treated control group, indicated analgesic activity.
# glycineb/D-serine site = biological target: T2, glycineb/D-serine site (Rattus norvegicus, UniProt P35439); test: threshold extension in rats, reversal by D-serine; type: in vivo; conditions: a glycine agonist, dose dependent fashion
# T2 construct: from tissue; host or cells: living rat (in vivo)
compound,measurement,setting,value
"COC[C@@H](NC(C)=O)C(=O)NCc1ccccc1 [Compound I, (R)-2-Acetamido-N-benzyl-3-methoxypropionamide]",IC50,[1],5.3 µM
same,radiant heat induced tail flick response (in words),male ICR mice; 30 mg/Kg,unaffected
same,% Inh.,male ICR mice; 30 mg/kg IP,0%
same,Response Time 30 Min. (individual animal),"male ICR mice; 30 mg/kg IP, 30 minutes after administration, cut-off 15 seconds",5.8 and 5.0 and 6.0 and 6.2
same,"Response Time 30 Min., X","male ICR mice; 30 mg/kg IP, mean of 4 mice",5.8
same,"Response Time 0 Min., X","male ICR mice; 30 mg/kg IP, mean of 4 mice, pretreatment",6.7
same,Response Time 0 Min. (individual animal),"male ICR mice; 30 mg/kg IP, pretreatment (0 minute)",6.4 (2×) and 7.3 and 6.5
same,% Inh.,[2]; 30 mg/kg PO,22%
same,"Licking Time, Ave.",[2]; 30 mg/kg PO,100 s
same,% Inh.,[2]; 100 mg/kg PO,100%
same,"Licking Time, Ave.",[2]; 100 mg/kg PO,0 s
same,"Licking Time, Indiv.","[2]; 100 mg/kg PO, 20 to 30 minutes after formalin",0 s
same,animals showing slight convulsions,"[2]; 100 mg/kg, at 15 minutes after oral administration, mice","Compound I, at a dose of 100 mg/kg, 5 out of 5 animals showed slight convulsions at 15 minutes after oral administration."
same,potentiation of 5-MeODMT-induced heat twitch,[3]; 30 mg/Kg PO,No potentiation
same,"Head Twitch, Ave.","[3]; 30 mg/kg PO, 3 rats",1
same,animals showing tremors without convulsions,"NMDA receptor; 30 μg/mouse, after intracerebroventricular administration",2 out of 3
same,Agonism (mice with convulsions/mortality within 5 minutes),"NMDA receptor; ICVT 30 μg/mouse, N 3",0
same,Antagonism (mice protected from NMDA 60 mg/kg IV induced tonic convulsions/mortality),"NMDA receptor; ICVT 30 μg/mouse, N 3",1
same,"No. of Writhes, X ± SEM",[4]; 30 mg/kg PO,X ± SEM 15 ± 1.7
same,No. of Writhes (individual animal),[4]; 30 mg/kg PO,18 and 12 and 15
same,% Inh.,[4]; 30 mg/kg PO,4%
same,"No. of Writhes, X ± SEM",[4]; 100 mg/kg PO,X ± SEM 0 ± 0
same,No. of Writhes (individual animal),[4]; 100 mg/kg PO,0
same,% Inh.,[4]; 100 mg/kg PO,100%
same,animals showing slight convulsions,"[4]; 100 mg/kg, 15 minutes after oral administration, mice","Compound I, at a dose of 100 mg/kg, 3 out of 3 animals showed slight convulsions 15 minutes after oral administration."
same,"effects on threshold extension in rats, reversal by D-serine",glycineb/D-serine site,can be reversed by D-serine
